Molecular target: T1, CYP11A1 (Homo sapiens, UniProt P05108)
T1 construct: recombinant WT human CYP11A1, pET-28a(+), C-terminal His6, coexpressed with GroEL/ES in E. coli, purified; MST
T1 sequence (P05108 40-521): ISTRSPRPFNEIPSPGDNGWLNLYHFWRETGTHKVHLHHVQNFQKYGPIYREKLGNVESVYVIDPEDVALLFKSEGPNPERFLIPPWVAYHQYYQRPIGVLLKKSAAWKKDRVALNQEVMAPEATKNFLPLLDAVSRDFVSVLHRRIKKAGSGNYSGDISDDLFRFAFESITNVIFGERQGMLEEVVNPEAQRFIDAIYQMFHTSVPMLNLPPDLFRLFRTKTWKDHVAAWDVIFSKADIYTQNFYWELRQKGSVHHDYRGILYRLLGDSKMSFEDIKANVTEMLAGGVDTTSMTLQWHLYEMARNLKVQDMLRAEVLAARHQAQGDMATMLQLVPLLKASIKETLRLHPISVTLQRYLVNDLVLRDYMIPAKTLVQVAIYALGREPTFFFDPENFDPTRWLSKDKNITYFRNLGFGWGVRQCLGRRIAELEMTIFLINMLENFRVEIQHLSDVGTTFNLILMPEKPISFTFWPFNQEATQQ
Assay: MST with purified protein; in-gel competition with Tet probe; CO difference spectra; cell activity IC50 […]
Assay type: binding

Kd: 12.5 µM
SMILES: COc1ccc2cc1Oc1ccc(cc1)C[C@H]1c3cc(c(OC)cc3CCN1C)Oc1c(OC)c(OC)cc3c1[C@H](C2)N(C)CC3 [Tet, Tetrandrine]

Reference: paper PMC11211567, “Tetrandrine inhibits aldosterone synthesis by covalently targeting CYP11A1 to attenuate hypertension” (Frontiers in Pharmacology, 2024)
